Measured values as given in PubChem BioAssay (NCI).
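Step 1: Grow cells in 96-well plates. Step 2: Expose to compound for 48 hours at 5 concentrations. Step 3: Interpolate endpoints linearly; if unreached, use highest concentration. GI50: concentration for 50% inhibition of growth. TGI: total growth inhibition.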

Columns and labels:
Assay in all cases: NCI tumour cell line growth inhibition, 48 h
786-0 renal = tested on: 786-0 renal
A498 renal = tested on: A498 renal
A549 NSCLC = tested on: A549 NSCLC
ACHN renal = tested on: ACHN renal
BT-549 breast = tested on: BT-549 breast
CAKI-1 renal = tested on: CAKI-1 renal
CCRF-CEM leukemia = tested on: CCRF-CEM leukemia
COLO 205 colon = tested on: COLO 205 colon
DU-145 prostate = tested on: DU-145 prostate
EKVX NSCLC = tested on: EKVX NSCLC
HCT-116 colon = tested on: HCT-116 colon
HCT-15 colon = tested on: HCT-15 colon
HL-60(TB) leukemia = tested on: HL-60(TB) leukemia
HOP-62 NSCLC = tested on: HOP-62 NSCLC
HOP-92 NSCLC = tested on: HOP-92 NSCLC
HS 578T breast = tested on: HS 578T breast
HT29 colon = tested on: HT29 colon
IGROV1 ovarian = tested on: IGROV1 ovarian
K-562 leukemia = tested on: K-562 leukemia
KM12 colon = tested on: KM12 colon
LOX IMVI melanoma = tested on: LOX IMVI melanoma
M14 melanoma = tested on: M14 melanoma
MALME-3M melanoma = tested on: MALME-3M melanoma
MCF7 breast = tested on: MCF7 breast
MDA-MB-231 breast = tested on: MDA-MB-231 breast
MDA-MB-435 = tested on: MDA-MB-435
MOLT-4 leukemia = tested on: MOLT-4 leukemia
NCI-H226 lung = tested on: NCI-H226 lung
NCI-H23 lung = tested on: NCI-H23 lung
NCI-H460 lung = tested on: NCI-H460 lung
NCI-H522 lung = tested on: NCI-H522 lung
NCI/ADR-RES ovarian = tested on: NCI/ADR-RES ovarian
OVCAR-3 ovarian = tested on: OVCAR-3 ovarian
OVCAR-4 ovarian = tested on: OVCAR-4 ovarian
OVCAR-5 ovarian = tested on: OVCAR-5 ovarian
OVCAR-8 ovarian = tested on: OVCAR-8 ovarian
PC-3 prostate = tested on: PC-3 prostate
RPMI-8226 leukemia = tested on: RPMI-8226 leukemia
RXF 393 renal = tested on: RXF 393 renal
SF-268 CNS = tested on: SF-268 CNS
SF-295 CNS = tested on: SF-295 CNS
SF-539 CNS = tested on: SF-539 CNS
SK-MEL-2 melanoma = tested on: SK-MEL-2 melanoma
SK-MEL-28 melanoma = tested on: SK-MEL-28 melanoma
SK-MEL-5 melanoma = tested on: SK-MEL-5 melanoma
SK-OV-3 ovarian = tested on: SK-OV-3 ovarian
SN12C renal = tested on: SN12C renal
SNB-19 CNS = tested on: SNB-19 CNS
SNB-75 CNS = tested on: SNB-75 CNS
SR leukemia = tested on: SR leukemia
SW-620 colon = tested on: SW-620 colon
T-47D breast = tested on: T-47D breast
TK-10 renal = tested on: TK-10 renal
U251 CNS = tested on: U251 CNS
UACC-257 melanoma = tested on: UACC-257 melanoma
UACC-62 melanoma = tested on: UACC-62 melanoma
UO-31 renal = tested on: UO-31 renal

O=C1NN(c2ccccc2)C(=O)/C1=C/c1ccc(Br)o1
GI50 (786-0 renal): 19.8 µM
TGI (786-0 renal): 53.2 µM
GI50 (A498 renal): 23 µM
TGI (A498 renal): 53.9 µM
GI50 (A549 NSCLC): 12 µM
TGI (A549 NSCLC): 44.4 µM
GI50 (ACHN renal): 13.3 µM
TGI (ACHN renal): > 49.4 µM
TGI (BT-549 breast): 17.2 µM
GI50 (CAKI-1 renal): 5.8 µM
TGI (CAKI-1 renal): 20.8 µM
GI50 (CCRF-CEM leukemia): 5.23 µM
TGI (CCRF-CEM leukemia): 19.8 µM
GI50 (COLO 205 colon): 3.75 µM
TGI (COLO 205 colon): 11.2 µM
GI50 (DU-145 prostate): 1.45 µM
TGI (DU-145 prostate): 11.2 µM
GI50 (EKVX NSCLC): 1.54 µM
TGI (EKVX NSCLC): 36.6 µM
GI50 (HCT-116 colon): 11.4 µM
TGI (HCT-116 colon): 25.8 µM
GI50 (HCT-15 colon): 10.1 µM
TGI (HCT-15 colon): 24.7 µM
GI50 (HL-60(TB) leukemia): 10.5 µM
TGI (HL-60(TB) leukemia): > 81.1 µM
TGI (HOP-62 NSCLC): 21.4 µM
TGI (HOP-92 NSCLC): 3.33 µM
GI50 (HS 578T breast): 1.49 µM
TGI (HS 578T breast): 3.11 µM
GI50 (HT29 colon): 4.21 µM
TGI (HT29 colon): 22.1 µM
GI50 (IGROV1 ovarian): 5.19 µM
TGI (IGROV1 ovarian): 35 µM
GI50 (K-562 leukemia): 14.1 µM
TGI (K-562 leukemia): > 77.7 µM
GI50 (KM12 colon): 9.71 µM
TGI (KM12 colon): 24 µM
GI50 (LOX IMVI melanoma): 5.42 µM
TGI (LOX IMVI melanoma): 22.4 µM
TGI (M14 melanoma): 16.2 µM
TGI (MALME-3M melanoma): 0.972 µM
GI50 (MCF7 breast): 3.54 µM
TGI (MCF7 breast): 18.9 µM
TGI (MDA-MB-231 breast): 20.9 µM
GI50 (MDA-MB-435): 6.65 µM
TGI (MDA-MB-435): 23.8 µM
GI50 (MOLT-4 leukemia): 6.06 µM
TGI (MOLT-4 leukemia): 24.6 µM
GI50 (NCI-H226 lung): 13.5 µM
TGI (NCI-H226 lung): 34.7 µM
GI50 (NCI-H23 lung): 15.6 µM
TGI (NCI-H23 lung): 36.1 µM
GI50 (NCI-H460 lung): 15.1 µM
TGI (NCI-H460 lung): 36 µM
GI50 (NCI-H522 lung): 7.92 µM
TGI (NCI-H522 lung): 36.8 µM
GI50 (NCI/ADR-RES ovarian): 15.8 µM
TGI (NCI/ADR-RES ovarian): 54.8 µM
GI50 (OVCAR-3 ovarian): 1.07 µM
TGI (OVCAR-3 ovarian): 13.2 µM
GI50 (OVCAR-4 ovarian): 15.3 µM
TGI (OVCAR-4 ovarian): 29.5 µM
GI50 (OVCAR-5 ovarian): 14.2 µM
TGI (OVCAR-5 ovarian): 30.6 µM
GI50 (OVCAR-8 ovarian): 11 µM
TGI (OVCAR-8 ovarian): 41.6 µM
GI50 (PC-3 prostate): 6.9 µM
TGI (PC-3 prostate): 26.3 µM
GI50 (RPMI-8226 leukemia): 0.777 µM
TGI (RPMI-8226 leukemia): 10.9 µM
GI50 (RXF 393 renal): 1.02 µM
TGI (RXF 393 renal): 2.04 µM
GI50 (SF-268 CNS): 14 µM
TGI (SF-268 CNS): 47.7 µM
TGI (SF-295 CNS): 2.56 µM
GI50 (SF-539 CNS): 20.5 µM
TGI (SF-539 CNS): 41.9 µM
GI50 (SK-MEL-2 melanoma): 15.8 µM
TGI (SK-MEL-2 melanoma): 44.7 µM
GI50 (SK-MEL-28 melanoma): 7.03 µM
TGI (SK-MEL-28 melanoma): 29.8 µM
GI50 (SK-MEL-5 melanoma): 1.26 µM
TGI (SK-MEL-5 melanoma): 2.05 µM
GI50 (SK-OV-3 ovarian): 26.7 µM
TGI (SK-OV-3 ovarian): > 61.4 µM
GI50 (SN12C renal): 0.951 µM
TGI (SN12C renal): 21.3 µM
GI50 (SNB-19 CNS): 17.5 µM
TGI (SNB-19 CNS): 41.9 µM
GI50 (SNB-75 CNS): 24.3 µM
TGI (SNB-75 CNS): 58.6 µM
GI50 (SR leukemia): 2.62 µM
TGI (SR leukemia): 8.3 µM
GI50 (SW-620 colon): 4.85 µM
TGI (SW-620 colon): 24.5 µM
GI50 (T-47D breast): 18.9 µM
TGI (T-47D breast): 52.3 µM
GI50 (TK-10 renal): 13.2 µM
TGI (TK-10 renal): 33.7 µM
GI50 (U251 CNS): 1.57 µM
TGI (U251 CNS): 19.8 µM
GI50 (UACC-257 melanoma): 15.4 µM
TGI (UACC-257 melanoma): 37.3 µM
GI50 (UACC-62 melanoma): 11.8 µM
TGI (UACC-62 melanoma): 24.3 µM
GI50 (UO-31 renal): 8.8 µM
TGI (UO-31 renal): > 64.1 µM
